Experiments:
PBMC = test: Human PBMC IL-2 assay; type: cell-based; details: anti-CD3/CD28 stimulation overnight, IL-2 level
Protocol: PBMC (frozen) obtained from health donor were thawed in RPMI-1640 medium with 10% FBS and incubated for 4 h at 37° C. In a 96-well plate, −200,000 PBMC cells in 160 uL were added to each assay well. Ten microliter compound solution (10 uM to 0.6 nM, 8 points with 4-fold dilution) were added to cells in each well and incubated for 60 minutes at 37° C. Then 30 uL anti-CD3/CD28 antibody (Catalog #10991, Stemcell) were added to cells and incubated overnight at 37° C. After the incubation, 16 uL supernatants were transferred into a new 384-well white assay plate for cytokine analysis. IL-2 level was quantified using Human IL-2 kit (Catalog #62HIL02PEG, Cisbio) as described in the manufacturer manual.
(§1) X is log of compound concentration, Y is the IL-2 concentration, increasing as X increases.

Jurkat cells = test: Jurkat IL-2 assay; type: cell-based; details: Homo sapiens, anti-CD3/CD28 stimulation overnight, IL-2 level
Protocol: Jurkat cells (ATCC) were cultured in RPMI-1640 medium supplemented with 10% FBS. In a 96-well plate, −250,000 cells in 130 uL were added to each assay well. Ten microliter compound solution (5 uM to 2.3 nM, 8 points with 3-fold dilution) were added to cells in each well and incubated for 60 minutes at 37° C. Then 10 uL anti-CD3/CD28 antibody (Catalog #10991, Stemcell) were added and incubated overnight at 37° C. After the incubation, 16 uL supernatants were transferred into a new 384-well white assay plate for cytokine analysis. IL-2 was quantified using Human IL-2 kit (Catalog #62HIL02PEG, Cisbio) as described in the manufacturer manual.
as §1

| Compound | EC50 (Jurkat cells) | EC50 (PBMC) |
| --- | --- | --- |
| CC[C@H](c1ccc(Cl)c(Cl)c1)N1C[C@H]2COc3c(c4nc(C#N)ccc4n(C)c3=O)N2C[C@H]1C (stereo in doubt) [Compound 321] | 223 nM | 540 nM |
| CC[C@@H]1CN2c3c(c(=O)n(C)c4ccc(C#N)cc34)OC[C@@H]2CN1[C@H](CC)c1ccc(C(F)(F)F)cc1 [Compound 211] | 485 nM | 175 nM |
| CC[C@@H]1CN2c3c(c(=O)n(C)c4ccc(C#N)nc34)OC[C@@H]2CN1[C@@H](CC)c1c(F)ccc(F)c1F (stereo in doubt) [Compound 170] | 246 nM | 186 nM |
| CC[C@@H]1CN2c3c(c(=O)n(C)c4ccc(C#N)nc34)OC[C@@H]2CN1[C@@H](CC)c1c(Cl)cccc1Cl (stereo in doubt) [Compound 240] | 242 nM | 109 nM |
| CC[C@@H]1CN2c3c(c(=O)n(C)c4ccc(C#N)nc34)OC[C@@H]2CN1[C@H](CC)c1cccc(C(F)(F)F)c1 (stereo in doubt) [Compound 148] | 209 nM | 582 nM |
| CC[C@@H]1CN2c3c(c(=O)n(C)c4ccc(C#N)nc34)OC[C@@H]2CN1[C@H](CC)c1ccc(F)c(Cl)c1 (stereo in doubt) [Compound 196] | 1280 nM | 846 nM |
| C[C@@H]1CN2c3c(c(=O)n(C)c4ccc(C#N)nc34)OC[C@@H]2CN1[C@H](C)c1ccc(F)c(Cl)c1 (stereo in doubt) [Compound 259] | 624 nM | 1880 nM |
| Cn1c(=O)c2c(c3nc(C#N)ccc31)N1CC[C@@H](Oc3ccc(C(F)(F)F)cc3)C[C@H]1CO2 [Compound 325] | 688 nM | 561 nM |
| Cn1c(=O)nc(N2CCC[C@@]3(CC2)CC(c2ccc(OC(F)(F)F)cc2)=NO3)c2nc(C#N)ccc21 (stereo in doubt) [Compound 140] | 598 nM | 259 nM |
| CC[C@@H]1CN2c3c(c(=O)n(C)c4ccc(C#N)nc34)OC[C@@H]2CN1Cc1ccc(C(F)(F)F)cc1 [Compound 265] | 165 nM | 152 nM |
| CC[C@H]1CN([C@H](c2ccc(C(F)(F)F)cc2)C(C)C)[C@H](CC)CN1c1nc2nncn2c2ccc(C#N)nc12 (stereo in doubt) [Compound 204] | 202 nM | 107 nM |
| CC[C@H]1CN([C@H](CC)c2ccc(F)cc2F)[C@H](CC)CN1c1nc2nncn2c2ccc(C#N)nc12 (stereo in doubt) [Compound 195] | 1110 nM | 2200 nM |
| CC[C@@H]1CN2c3c(c(=O)n(C)c4ccc(C#N)nc34)N(C)C(=O)[C@@H]2CN1[C@H](CC)c1ccc(C(F)(F)F)cc1 [Compound 199] | 873 nM | 1580 nM |
| CC[C@@H]1CN2c3c(c(=O)n(C)c4ccc(C#N)nc34)OC[C@@H]2CN1[C@@H](CO)c1ccc(C(F)(F)F)cc1 [Compound 235] | 538 nM | 662 nM |
| CC[C@@H]1CN2c3c(c(=O)n(C)c4ccc(C#N)nc34)OC[C@@H]2CN1Cc1ccc(Cl)c(Cl)c1 [Compound 266] | 163 nM | 111 nM |
| CC[C@@H]1CN2c3c(c(=O)n(C)c4ccc(C#N)nc34)OC[C@@H]2CN1[C@@H](CC)c1ccc(C(F)(F)F)cc1Cl (stereo in doubt) [Compound 207] | 150 nM | 284 nM |
| Cn1c(=O)nc(N2CCC[C@]3(CC2)CC(c2ccc(OC(F)(F)F)cc2)=NO3)c2nc(C#N)ccc21 (stereo in doubt) [Compound 139] | 251 nM | 869 nM |
| C[C@@H]1CN2c3c(c(=O)n(C)c4ccc(C#N)nc34)OC[C@@H]2CN1[C@H](C)c1ccc(C(C)(F)F)cc1 (stereo in doubt) [Compound 303] | 153 nM | 105 nM |

Now those with a lower EC50 (Jurkat cells), led by results:

| EC50 (Jurkat cells) | Compound | EC50 (PBMC) |
| --- | --- | --- |
| 70 nM | CC[C@H]1CN([C@@H](CC)c2nc(C(F)(F)F)no2)[C@H](CC)CN1c1nc2nncn2c2ccc(C#N)nc12 (stereo in doubt) [Compound 135] | 69 nM |
| 29 nM | CC[C@@H](c1ccc(C(F)(F)F)cc1)N1C[C@H]2COc3c(c4nc(C#N)ccc4n(C)c3=O)N2C[C@H]1C (stereo in doubt) [Compound 179] | 58 nM |
| 100 nM | CC[C@@H]1CN2c3c(c(=O)n(C)c4ccc(C#N)nc34)OC[C@@H]2CN1[C@H](CC)c1ccc(C#N)cc1 (stereo in doubt) [Compound 162] | 786 nM |
| 6 nM | CC[C@@H]1CN2c3c(c(=O)n(C)c4ccc(C#N)nc34)OC[C@@H]2CN1[C@@H](CC)c1ccc(Cl)c(C)c1 (stereo in doubt) [Compound 341] | 13 nM |
| 55 nM | CC[C@@H]1CN2c3c(c(=O)n(C)c4ccc(C#N)nc34)OC[C@@H]2CN1[C@@H](CC)c1c(F)cc(F)cc1F (stereo in doubt) [Compound 147] | 96 nM |
| 11 nM | CC[C@@H]1CN2c3c(c(=O)n(C)c4ccc(C#N)nc34)OC[C@@H]2CN1[C@@H](CC)c1ccc(OC(F)(F)F)cc1 (stereo in doubt) [Compound 212] | 39 nM |
| 77 nM | CCC(c1ccc(F)c(F)c1)N1C[C@H]2COc3c(c4nc(C#N)ccc4n(C)c3=O)N2C[C@H]1CC (single isomer, unassigned) [Compound 183] | 156 nM |
| 13 nM | CC[C@@H]1CN2c3c(c(=O)n(C)c4ccc(C#N)nc34)OC[C@@H]2CN1[C@@H](CC)c1ccc(C(F)(F)F)cn1 (stereo in doubt) [Compound 186] | 23 nM |
| 47 nM | CC[C@@H]1CN2c3c(c(=O)n(C)c4ccc(C#N)nc34)OC[C@@H]2CN1[C@@H](CC)c1ccc(OC)cc1F (stereo in doubt) [Compound 232] | 19 nM |
| 131 nM | CC[C@@H]1CN2c3c(c(=O)n(C)c4ccc(C#N)nc34)OC[C@@H]2CN1[C@H](CC)c1ccc(F)c(C)c1 (stereo in doubt) [Compound 336] | 163 nM |
| 18 nM | CC[C@@H]1CN2c3c(c(=O)n(C)c4ccc(C#N)nc34)OC[C@@H]2CN1[C@@H](CC)c1ccc(C)cc1 (stereo in doubt) [Compound 345] | 10 nM |
| 42 nM | CC[C@H]1CN([C@H](c2ccc(SC(F)(F)F)cc2)C2CC2)[C@H](CC)CN1c1nc2nncn2c2ccc(C#N)nc12 (stereo in doubt) [Compound 168] | 32 nM |
| 12 nM | CC[C@@H]1CN2c3c(c(=O)n(C)c4ccc(C#N)nc34)OC[C@@H]2CN1[C@@H](CC)c1ccc(F)c(C)c1 (stereo in doubt) [Compound 337] | 16 nM |
| 79 nM | C[C@@H]1CN2c3c(c(=O)n(C)c4ccc(C#N)nc34)OC[C@@H]2CN1[C@@H](C)c1ccc(Cl)cc1 (stereo in doubt) [Compound 271] | 57 nM |
| 125 nM | CC[C@@H]1CN2c3c(c(=O)n(C)c4ccc(C#N)nc34)OC[C@@H]2CN1[C@H](CC)c1ccc(C)c(Cl)c1 (stereo in doubt) [Compound 342] | 280 nM |
| 42 nM | CC[C@@H]1CN2c3c(c(=O)n(C)c4ccc(C#N)nc34)OC[C@@H]2CN1[C@H](CC)c1ccc(C(F)(F)F)c(F)c1 (stereo in doubt) [Compound 320] | 56 nM |
| 14 nM | CC[C@@H]1CN2c3c(c(=O)n(C)c4ccc(C#N)nc34)OC[C@@H]2CN1[C@@H](CC)c1ncc(C(F)(F)F)cn1 [Compound 331] | 16 nM |
| 90 nM | CC[C@H]1CN([C@H](C)c2ccc(C(F)(F)F)cc2)[C@H](C)CN1c1nc2nncn2c2ccc(C#N)nc12 (stereo in doubt) [Compound 315] | 63 nM |
| 97 nM | CC[C@@H](c1ccc(C(F)(F)F)c(F)c1)N1C[C@H]2COc3c(c4nc(C#N)ccc4n(C)c3=O)N2C[C@H]1C (stereo in doubt) [Compound 329] | 54 nM |
| 76 nM | CC[C@@H]1CN2c3c(c(=O)n(C)c4ccc(C#N)nc34)OC[C@@H]2CN1[C@@H](CC)c1ccc(C(F)(F)F)cc1F (stereo in doubt) [Compound 144] | 61 nM |
| 8 nM | CC[C@@H]1CN2c3c(c(=O)n(C)c4ccc(C#N)nc34)OC[C@@H]2CN1[C@@H](CC)c1ccc(Cl)cc1F (stereo in doubt) [Compound 295] | 10 nM |
| 36 nM | CC[C@@H](c1ccc(C(F)(F)F)cc1F)N1C[C@H]2COc3c(c4nc(C#N)ccc4n(C)c3=O)N2C[C@H]1C (stereo in doubt) [Compound 306] | 30 nM |
| 96 nM | CC[C@@H]1CN2c3c(c(=O)n(C)c4ccc(C#N)nc34)OC[C@@H]2CN1[C@H](CC)c1ccc(C)cc1 (stereo in doubt) [Compound 344] | 53 nM |
| 87 nM | CC[C@@H]1CN2c3c(c(=O)n(CC)c4ccc(C#N)nc34)OC[C@@H]2CN1[C@@H](CC)c1ccc(C(F)(F)F)cc1 (stereo in doubt) [Compound 228] | 227 nM |
| 118 nM | CC[C@@H](c1ccc(Cl)c(F)c1)N1C[C@H]2COc3c(c4nc(C#N)ccc4n(C)c3=O)N2C[C@H]1C (stereo in doubt) [Compound 281] | 49 nM |
